Values of other authors in article PMC6696021, “Combined Ensemble Docking and Machine Learning in Identification of Therapeutic Agents with Potential Inhibitory Effect on Human CES1” (Molecules, 2019).

Biological target: CES1
Set-up: method as in earlier work
Details: Table S1, bioactivity from ChEMBL database; read-out: Ki_Nanomolar; cited from earlier work

SMILES	Ki
OC(O)(CSCCc1ccccc1)C(F)(F)F [CHEMBL510996]	6.9 µM
O=C(C(=O)c1ccc(CBr)cc1)c1ccccc1 [CHEMBL192241]	0.0776 µM
Cc1ccc(C(=O)C(=O)c2ccccc2)cc1C [CHEMBL193140]	0.0793 µM
O=C(C(=O)c1ccc(Br)s1)c1ccc(Br)s1 [CHEMBL192592]	0.142 µM
O=C(Cc1ccccc1)C(=O)C(Br)c1ccccc1 (centres unmarked) [CHEMBL1812852]	2.63 µM
O=C(CSCCc1ccccc1)C(F)(F)F [CHEMBL460809]	0.0633 µM
Cc1ccc(C(=O)Nc2cccc(C(=O)C(=O)c3ccccn3)c2)cc1 [CHEMBL1630810]	1.03 µM
O=C(C(=O)c1ccccn1)c1ccccn1 [CHEMBL373345]	0.245 µM
CCCCCCCC(=O)C(=O)CCCCCCC [CHEMBL1812858]	0.0076 µM
CCCCC(=O)C(C)=O [CHEMBL364588]	16.9 µM
COc1ccc(C(=O)C(=O)c2ccc(OC)cc2)cc1 [CHEMBL191513]	3.4 µM
CCCCCCCCCC[S+]([O-])CC(O)(O)C(F)(F)F (centres unmarked) [CHEMBL464002]	2.62 µM
O=C(CC(=O)c1ccccc1)c1ccccc1 [DIBENZOYLMETHANE]	26 µM
O=C1Nc2c(Cl)ccc(Cl)c2C1=O [CHEMBL223039]	0.59 µM
C=C(C)CN1C(=O)C(=O)c2cc(Br)ccc21 [CHEMBL225169]	0.066 µM
O=C(C(=O)C(Br)c1ccccc1)C(Br)c1ccccc1 (centres unmarked) [CHEMBL1812851]	0.107 µM
O=C1C(=O)c2ccccc2CCc2ccccc21 [CHEMBL235931]	2.98 µM
O=C(Cc1ccccc1)C(=O)Cc1ccccc1 [CHEMBL1812850]	3.08 µM
O=C(C(=O)c1ccc2ccccc2c1)c1ccc2ccccc2c1 [CHEMBL189162]	0.256 µM
O=C(C(=O)c1ccc(Br)cc1)c1ccc(Br)cc1 [CHEMBL193228]	66.7 µM
CCCCCC[S+]([O-])CC(O)(O)C(F)(F)F (centres unmarked) [CHEMBL460808]	39.7 µM
CCCCSCC(=O)C(F)(F)F [CHEMBL402615]	0.4 µM

SMILES	Ki
CCCCCC(=O)C(=O)CCCCC [CHEMBL1812856]	0.003 µM
O=C(C(=O)c1cc(Br)cs1)c1cc(Br)cs1 [CHEMBL190672]	0.0208 µM
O=C(C(=O)c1cc(F)c(F)c(F)c1)c1cc(F)c(F)c(F)c1 [CHEMBL193180]	0.405 µM
O=C1C(=O)N(Cc2ccc(Cc3ccc(CN4C(=O)C(=O)c5ccccc54)cc3)cc2)c2ccccc21 [CHEMBL222752]	0.008 µM
O=C1C(=O)c2cccnc2-c2ncccc21 [CHEMBL235504]	5.4 µM
O=C(C(=O)c1ccc([N+](=O)[O-])cc1)c1ccc([N+](=O)[O-])cc1 [CHEMBL236340]	9.8 µM
Cc1ccc(C(=O)C(=O)c2ccccc2)cc1[N+](=O)[O-] [CHEMBL191847]	0.223 µM
CCCCCCCCCCS(=O)(=O)CC(O)(O)C(F)(F)F [CHEMBL467451]	0.397 µM
O=C(O)c1ccc(C(=O)C(=O)c2ccccc2)cc1 [CHEMBL370059]	0.524 µM
CCCCCCCCS(=O)(=O)CC(O)(O)C(F)(F)F [CHEMBL460807]	0.757 µM
CCCCCCCCC(=O)C(=O)CCCCCCCC [CHEMBL1812859]	0.00084 µM
CCCCCCCCCCC(=O)C(F)(F)F [CHEMBL86668]	0.0768 µM
O=C(Cc1ccccc1Nc1c(Cl)cccc1Cl)O[C@@H]1O[C@H](C(=O)O)[C@@H](O)[C@H](O)[C@H]1O [CHEMBL3527338]	4.32 µM
O=C1C=Cc2ccccc2C1=O [1-2-NAPHTHOQUINONE]	0.93 µM
O=C1Nc2cc(Cl)c(Cl)cc2C1=O [CHEMBL222988]	21 µM
O=C1C(=O)c2ccccc2-c2ccccc21 [9-10-PHENANTHRENEQUINONE]	0.0025 µM
O=C1C(=O)N(c2ccccc2)c2ccccc21 [PHENYLISATIN]	0.023 µM
O=C(Nc1cccc(C(=O)C(=O)c2ccccn2)c1)c1cccc(Cl)c1 [CHEMBL1630814]	0.756 µM
O=C1C(=O)N(CNc2ccccc2Br)c2ccccc21 [CHEMBL374758]	36 µM
O=C1C(=O)N(Cc2ccccc2)c2ccccc21 [CHEMBL115581]	1.7 µM
CCCCCCOCC(O)(O)C(F)(F)F [CHEMBL449475]	1.66 µM
O=C(Nc1cccc(C(=O)C(=O)c2ccccn2)c1)c1ccc(F)c(F)c1 [CHEMBL1630811]	1.24 µM

SMILES	Ki
Cc1coc2c1C(=O)C(=O)c1c-2ccc2c(C)cccc12 [TANSHINONEI]	26.2 µM
C[C@H]1COC2=C1C(=O)C(=O)c1c2ccc2c1CCCC2(C)C [CRYPTOTANSHINONE]	0.544 µM
CCCCCCC(=O)C(=O)c1ccccc1 [CHEMBL1812864]	0.00219 µM
COc1ccc(C(=O)C(=O)c2ccccc2Cl)cc1OC [CHEMBL191822]	3.31 µM
O=C1C(=O)c2cccc3cccc1c23 [ACENAPHTHOQUINONE]	0.031 µM
CCCCCCCCCCCCSCC(=O)C(F)(F)F [CHEMBL270375]	0.0391 µM
O=C(Nc1cccc(C(=O)C(=O)c2ccccn2)c1)c1ccc(F)cc1 [CHEMBL1630816]	0.381 µM
Cc1ccc(C(=O)C(=O)c2ccccc2)cc1 [CHEMBL371858]	0.125 µM
CCCCCCCCSCC(=O)C(F)(F)F [CHEMBL89506]	0.0974 µM
O=C(C(=O)c1ccc(F)cc1)c1ccc(F)cc1 [CHEMBL192410]	0.23 µM
O=C1C(=O)N2CCCc3cccc1c32 [CHEMBL395654]	1.54 µM
O=C(C(=O)c1ccco1)c1ccco1 [CHEMBL371181]	3.61 µM
Cc1coc2c1C(=O)C(=O)c1c-2ccc2c1CCCC2(C)C [TANSHINONEIIA]	6.89 µM
O=C(C(=O)c1c(Cl)c(Cl)c(Cl)c(Cl)c1Cl)c1c(F)c(F)c(F)c(F)c1F [CHEMBL195713]	1.69 µM
CCCCCCS(=O)(=O)CC(O)(O)C(F)(F)F [CHEMBL449775]	4.89 µM
O=C(C(=O)c1ccccn1)c1cccc(NC(=O)c2ccc(Cl)cc2Cl)c1 [CHEMBL1630808]	0.279 µM
O=C(C(=O)c1ccccc1Cl)c1ccccc1Cl [CHEMBL365392]	1.65 µM
O=C1C(=O)N(CCBr)c2ccccc21 [CHEMBL223000]	0.29 µM
O=C(C(=O)c1ccc([N+](=O)[O-])cc1)c1ccccc1 [CHEMBL192589]	0.214 µM
O=C1Cc2ccccc2C1=O [CHEMBL235288]	5.24 µM
CCCCCCCCCCSCC(=O)C(F)(F)F [CHEMBL270374]	0.0664 µM
O=C1C(=O)c2cccc3c2N(CCC3)C1=O [CHEMBL235290]	5.38 µM

SMILES	Ki
CCCCCCC(=O)C(=O)CCCCCC [CHEMBL1812857]	0.0048 µM
CC(=O)N1C(=O)C(=O)c2ccccc21 [CHEMBL223001]	36 µM
CCCCCCCCCCCCN1C(=O)C(=O)c2ccccc21 [CHEMBL222644]	0.01 µM
O=C1C(=O)N(CNc2ccc(Br)cc2)c2ccccc21 [CHEMBL385132]	0.58 µM
CC(=O)C(=O)c1ccccc1 [CHEMBL192258]	5.27 µM
CCCCC(=O)C(=O)c1ccccc1 [CHEMBL1812862]	0.0261 µM
CCCCCCCCCCCCS(=O)(=O)CC(O)(O)C(F)(F)F [CHEMBL467450]	0.371 µM
COC(OC)(C(=O)c1ccccc1)c1ccccc1 [CHEMBL364734]	15.3 µM
Cc1ccc(C(=O)C(=O)c2ccc(C)cc2)cc1 [CHEMBL192625]	0.535 µM
CC(C)(C)C1=CC(=O)C(=O)C(C(C)(C)C)=C1 [CHEMBL365161]	0.0886 µM
O=C(C(=O)c1ccc(Cl)cc1)c1ccccc1 [CHEMBL192180]	0.037 µM
O=C(C(=O)C1CCCCC1)C1CCCCC1 [CHEMBL235287]	0.0385 µM
COc1cc(NCN2C(=O)C(=O)c3ccccc32)cc(OC)c1OC [CHEMBL221362]	19.5 µM
CCC(=O)C(=O)c1ccccc1 [CHEMBL1812860]	1.55 µM
Cc1cccc2c3c(ccc12)C1=C(C(=O)C3=O)[C@@H](C)CO1 [DIHYDROTANSHINONEI]	0.398 µM
CCCCC(=O)C(=O)CCCC [CHEMBL1812855]	0.0466 µM
O=C(C(=O)c1ccsc1)c1ccsc1 [CHEMBL372716]	1.05 µM
O=C1C(=O)c2ccc([N+](=O)[O-])c3c([N+](=O)[O-])ccc1c23 [CHEMBL235289]	0.57 µM
O=C1Nc2c(Cl)cccc2C1=O [CHEMBL222190]	11.4 µM
O=C(c1cccs1)C(O)c1cccs1 (centres unmarked) [CHEMBL190660]	3.1 µM
O=C1Nc2cc(Cl)cc(Cl)c2C1=O [CHEMBL385800]	0.89 µM
O=C(C(=O)c1cccs1)c1cccs1 [CHEMBL365445]	0.433 µM

SMILES	Ki
O=C1Nc2c(ccc(Cl)c2Cl)C1=O [CHEMBL222292]	9.4 µM
O=C(O)[C@H]1O[C@@H](OC(=O)[C@H](c2ccccc2Cl)N2CCc3sccc3C2)[C@H](O)[C@@H](O)[C@@H]1O [CHEMBL3526940]	24.8 µM
CCCC(=O)C(=O)CCC [CHEMBL1812854]	8.06 µM
COc1ccc(C(=O)C(=O)c2ccccc2)cc1 [CHEMBL192474]	0.174 µM
O=C(C(=O)c1ccc(Cl)cc1)c1ccc(Cl)cc1 [CHEMBL192139]	25.1 µM
O=C1C(=O)N(CCI)c2ccccc21 [CHEMBL376518]	0.13 µM
CCCCCCCCCCCC[S+]([O-])CC(O)(O)C(F)(F)F (centres unmarked) [CHEMBL463556]	0.953 µM
O=C1C(=O)N(CNc2ccc(Cl)cc2)c2ccccc21 [CHEMBL222712]	0.61 µM
O=C(c1ccccc1)C(O)c1ccccc1 (centres unmarked) [BENZOIN]	30.4 µM
CC(C)C1=Cc2ccc3c(c2C(=O)C1=O)CCCC3(C)C [MILTIRONE]	2.53 µM
CCCCCCCC[S+]([O-])CC(O)(O)C(F)(F)F (centres unmarked) [CHEMBL460806]	7.4 µM
O=C1C(=O)c2sccc2-c2ccsc21 [CHEMBL398109]	0.15 µM
CCCCCC(=O)C(=O)c1ccccc1 [CHEMBL1812863]	0.00668 µM
O=C1C(=O)C(Cl)=C(Cl)C(Cl)=C1Cl [CHEMBL364729]	5.44 µM
O=C1C(=O)c2c3ccccc3cc3cccc1c23 [CHEMBL235503]	0.0015 µM
Cc1ccc(C(=O)C(=O)c2ccc(Cl)cc2)cc1 [CHEMBL192252]	0.159 µM
O=C(C(=O)c1cccc([N+](=O)[O-])c1)c1cccc([N+](=O)[O-])c1 [CHEMBL191796]	18.1 µM
O=C1C(Cl)=C(Cl)C(=O)C(Cl)=C1Cl [CHLORANIL]	0.0839 µM
O=C(Nc1cccc(C(=O)C(=O)c2ccccn2)c1)c1ccc(C(F)(F)F)cc1 [CHEMBL1629724]	0.437 µM
